Measurements from article PMC11238352, “Combination of dual JAK/HDAC inhibitor with regorafenib synergistically reduces tumor growth, metastasis, and regorafenib-induced toxicity in colorectal cancer” (Journal of Experimental & Clinical Cancer Research : CR, 2024).

Experiments:
SW480 cells [1] = experiment: Annexin V-FITC/PI apoptosis flow cytometry; assay type: cell-based; conditions: SW480, 72 h, average of three experiments
Method: (§1) To evaluate the effect of drugs on apoptosis, cells were stained by use of TACS Annexin V-FITC apoptosis detection kit obtained from R&D Systems (Minneapolis, MN), following the manufacturer’s protocol. CRC cells (HCT116, RKO, HT29, and SW480) were seeded at 1 × 10^5/dish in triplicates in four groups: vehicle, JAK/HDACi, regorafenib, and the combination for 72 h. The cells were analyzed with a BD LSR FortessaTM Flow Cytometer (BD Biosciences, Mountain View, CA).

RKO cells = experiment: Annexin V-FITC/PI apoptosis flow cytometry; assay type: cell-based; conditions: 72 h, average of three experiments
Method: as §1

HCT116 cells = experiment: Annexin V-FITC/PI apoptosis flow cytometry; assay type: cell-based; conditions: HCT116, 72 h, average of three experiments
Method: as §1

HT29 cells = experiment: Annexin V-FITC/PI apoptosis flow cytometry; assay type: cell-based; conditions: HT29, 72 h, average of three experiments
Method: as §1

[2] = Pharmacokinetics in plasma; assay type: in vivo; conditions: given in combination with JAK/HDACi, C57BL/6 mice plasma, 1, 7, 21, 48 h, i.p.
Method: Blood samples were collected from C57BL/6 mice treated with regorafenib and JAK-HDACi at 1, 7, 21, or 48 h after treatment, and plasma samples were assayed. The quantifications of regorafenib and JAK-HDACi in plasma were conducted using a Shimadzu LC-20AD LC (Shimadzu, OR) and an API5000 MS (Sciex, MA). For sample preparation, a one-step protein precipitation with acetonitrile was used. Plasma (10 µL) was added into 250 µL of acetonitrile. Chromatographic separation was performed using an ACE Excel 3 C18 column. The mobile phase was (A) 0.1% formic acid in water and (B) 0.1% formic acid in acetonitrile utilizing a gradient from 20% to 75%. The injection volume was 10 µL. The run time was 5 min, and the retention time was 2.4 min. Standard curves for regorafenib and JAK-HDACi in plasma were prepared in the ranges of 5–15,000 ng/ml.

SW480 cells [3] = experiment: Cell cycle analysis by flow cytometry; assay type: cell-based; conditions: SW480, 24 h, 500 nM
Method: To evaluate the effect of drugs on cell cycle arrest, SW480 and RKO cells were seeded, 1 × 10^6/dish in triplicates in four groups: vehicle, JAK/HDACi, regorafenib, and their combination (for 24 h, following procedure described in our previous study. Cell cycle analysis was performed using BD LSR FortessaTM Flow Cytometer (BD Biosciences, Mountain View, CA).

[4] = mouse, in vivo
Text: Upon completion of the experiment for 30 days in HT29 metastasis model, before mice were sacrificed, blood was collected and serum was isolated to evaluate liver and kidney functions to assess toxicity with JAK/HDACi and regorafenib alone, and their combination treatment, using a comprehensive Panel EWrap (Cat# 6330-COMP) by a DRY CHEM 4000 Analyzer.

FLT1 = biological target: T1, FLT1 (Homo sapiens, UniProt P17948); experiment: PamStation PTK kinomic profiling; assay type: cell-based; conditions: change from DMSO control
T1 construct: endogenous in cells; host or cells: SW480 and RKO
Method: (§2) SW480 and RKO cells were treated with vehicle (DMSO), JAK/HDACi, regorafenib, and their combination for 45 min, and cell lysates were prepared. Tyrosine kinase (PTK) activity (kinomic) profiling was performed using the PamStation®12 platform (PamGene, BV, The Netherlands). As per standard kinomic protocol as described previously. Whole-chip comparative analysis (BioNavigator Upkin PTK v8.0) was performed between groups generating Mean Kinase Statistics (direction of change).

EphA8 = biological target: T2, EphA8 (Homo sapiens, UniProt P29322); experiment: PamStation PTK kinomic profiling; assay type: cell-based; conditions: change from DMSO control
T2 construct: cell lysates were prepared; endogenous in cells; host or cells: SW480 and RKO
Method: as §2

HER4 = biological target: T3, HER4 (Homo sapiens, UniProt Q15303); experiment: PamStation PTK kinomic profiling; assay type: cell-based; conditions: change from DMSO control
T3 construct: we conducted kinome analysis on lysates of SW480 and RKO cells; endogenous in cells; host or cells: SW480 and RKO cells
Method: as §2

FGFR3 = biological target: T4, FGFR3 (Homo sapiens, UniProt P22607); experiment: PamStation PTK kinomic profiling; assay type: cell-based; conditions: change from DMSO control
T4 construct: cell lysates were prepared; endogenous in cells; host or cells: SW480 and RKO
Method: as §2

IGF1R = biological target: T5, IGF1R (Homo sapiens, UniProt P08069); experiment: PamStation PTK kinomic profiling; assay type: cell-based; conditions: change from DMSO control
T5 construct: cell lysates were prepared; endogenous in cells; host or cells: SW480 and RKO
Method: as §2

FGFR2 = biological target: T6, FGFR2 (Homo sapiens, UniProt P21802); experiment: PamStation PTK kinomic profiling; assay type: cell-based; conditions: change from DMSO control
T6 construct: cell lysates were prepared; endogenous in cells; host or cells: SW480 and RKO
Method: as §2

FLT3 = biological target: T7, FLT3 (Homo sapiens, UniProt P36888); experiment: PamStation PTK kinomic profiling; assay type: cell-based; conditions: change from DMSO control
T7 construct: we conducted kinome analysis on lysates of SW480 and RKO cells; endogenous in cells; host or cells: SW480 and RKO cells
Method: as §2

JAK2 = biological target: T8, JAK2 (Homo sapiens, UniProt O60674); experiment: PamStation PTK kinomic profiling; assay type: cell-based; conditions: change from DMSO control
T8 construct: cell lysates were prepared; endogenous in cells; host or cells: SW480 and RKO
Method: as §2

FAK2 = biological target: T9, FAK2 (Homo sapiens, UniProt Q14289); experiment: PamStation PTK kinomic profiling; assay type: cell-based; conditions: change from DMSO control
T9 construct: cell lysates were prepared; endogenous in cells; host or cells: SW480 and RKO
Method: as §2

HER3 = biological target: T10, HER3 (Homo sapiens, UniProt P21860); experiment: PamStation PTK kinomic profiling; assay type: cell-based; conditions: change from DMSO control
T10 construct: cell lysates were prepared; endogenous in cells; host or cells: SW480 and RKO
Method: as §2

Abl = biological target: T11, Abl (Homo sapiens, UniProt P00519); experiment: PamStation PTK kinomic profiling; assay type: cell-based; conditions: change from DMSO control
T11 construct: cell lysates were prepared; endogenous in cells; host or cells: SW480 and RKO
Method: as §2

T10 sequence (P21860 20-1342): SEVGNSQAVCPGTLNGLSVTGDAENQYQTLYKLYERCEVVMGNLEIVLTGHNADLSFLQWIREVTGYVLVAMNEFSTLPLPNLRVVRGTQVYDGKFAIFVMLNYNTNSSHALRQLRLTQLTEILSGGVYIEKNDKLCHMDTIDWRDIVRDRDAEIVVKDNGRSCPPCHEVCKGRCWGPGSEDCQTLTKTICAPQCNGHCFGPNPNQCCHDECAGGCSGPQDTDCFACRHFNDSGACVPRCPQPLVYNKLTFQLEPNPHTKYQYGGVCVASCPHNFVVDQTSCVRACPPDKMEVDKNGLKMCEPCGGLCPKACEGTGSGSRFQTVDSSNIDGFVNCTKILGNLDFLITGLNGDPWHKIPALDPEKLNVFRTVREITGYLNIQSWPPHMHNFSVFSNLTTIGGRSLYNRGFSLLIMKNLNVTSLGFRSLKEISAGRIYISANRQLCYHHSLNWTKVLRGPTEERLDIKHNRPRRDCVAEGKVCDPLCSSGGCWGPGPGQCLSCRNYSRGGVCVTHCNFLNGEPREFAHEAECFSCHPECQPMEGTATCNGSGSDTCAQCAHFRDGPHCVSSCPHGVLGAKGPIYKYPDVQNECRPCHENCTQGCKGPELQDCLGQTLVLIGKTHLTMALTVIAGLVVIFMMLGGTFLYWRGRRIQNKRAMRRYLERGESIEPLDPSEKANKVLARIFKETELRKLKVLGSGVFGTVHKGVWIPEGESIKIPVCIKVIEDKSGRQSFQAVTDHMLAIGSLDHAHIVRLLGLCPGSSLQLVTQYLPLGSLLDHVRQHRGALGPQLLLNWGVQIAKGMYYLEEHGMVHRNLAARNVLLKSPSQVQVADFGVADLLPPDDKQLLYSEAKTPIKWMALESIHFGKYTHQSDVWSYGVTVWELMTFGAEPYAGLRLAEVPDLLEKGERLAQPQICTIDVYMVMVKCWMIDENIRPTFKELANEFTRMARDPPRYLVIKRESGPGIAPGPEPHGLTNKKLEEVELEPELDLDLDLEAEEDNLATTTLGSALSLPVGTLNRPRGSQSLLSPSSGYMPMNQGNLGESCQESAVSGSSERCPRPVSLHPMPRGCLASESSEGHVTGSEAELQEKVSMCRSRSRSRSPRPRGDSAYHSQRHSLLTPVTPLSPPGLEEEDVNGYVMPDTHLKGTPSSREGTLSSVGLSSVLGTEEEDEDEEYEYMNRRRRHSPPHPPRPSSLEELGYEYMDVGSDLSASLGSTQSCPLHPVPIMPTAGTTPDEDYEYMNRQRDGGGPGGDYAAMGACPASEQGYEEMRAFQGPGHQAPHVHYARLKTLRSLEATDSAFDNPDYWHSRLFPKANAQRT
T9 sequence (Q14289 whole entry): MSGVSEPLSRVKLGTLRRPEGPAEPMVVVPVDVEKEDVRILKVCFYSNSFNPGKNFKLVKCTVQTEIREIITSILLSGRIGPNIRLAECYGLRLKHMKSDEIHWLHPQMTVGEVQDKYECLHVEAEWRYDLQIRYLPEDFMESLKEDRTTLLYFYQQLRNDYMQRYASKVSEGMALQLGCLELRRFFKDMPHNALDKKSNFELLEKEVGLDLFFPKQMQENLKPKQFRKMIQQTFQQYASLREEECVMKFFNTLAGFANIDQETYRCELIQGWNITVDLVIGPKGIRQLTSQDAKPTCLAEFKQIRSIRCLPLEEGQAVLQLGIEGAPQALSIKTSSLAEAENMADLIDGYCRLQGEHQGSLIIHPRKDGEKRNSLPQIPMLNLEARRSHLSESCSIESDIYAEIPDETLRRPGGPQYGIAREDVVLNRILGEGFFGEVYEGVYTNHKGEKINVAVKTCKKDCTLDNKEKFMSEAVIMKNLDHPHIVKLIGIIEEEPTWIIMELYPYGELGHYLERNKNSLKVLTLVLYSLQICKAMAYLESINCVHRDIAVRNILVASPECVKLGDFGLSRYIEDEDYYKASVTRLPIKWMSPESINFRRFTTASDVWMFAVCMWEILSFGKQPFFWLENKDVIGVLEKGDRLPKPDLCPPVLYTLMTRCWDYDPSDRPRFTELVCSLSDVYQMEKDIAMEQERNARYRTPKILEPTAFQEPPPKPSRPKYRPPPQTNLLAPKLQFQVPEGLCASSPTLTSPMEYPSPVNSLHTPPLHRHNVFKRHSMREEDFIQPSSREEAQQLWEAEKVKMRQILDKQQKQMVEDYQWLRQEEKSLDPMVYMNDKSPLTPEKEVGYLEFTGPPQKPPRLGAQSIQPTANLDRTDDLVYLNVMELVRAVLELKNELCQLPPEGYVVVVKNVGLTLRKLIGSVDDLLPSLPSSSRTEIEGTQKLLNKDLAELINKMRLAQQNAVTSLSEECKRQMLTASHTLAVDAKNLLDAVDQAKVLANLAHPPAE
T2 sequence (P29322 28-1005): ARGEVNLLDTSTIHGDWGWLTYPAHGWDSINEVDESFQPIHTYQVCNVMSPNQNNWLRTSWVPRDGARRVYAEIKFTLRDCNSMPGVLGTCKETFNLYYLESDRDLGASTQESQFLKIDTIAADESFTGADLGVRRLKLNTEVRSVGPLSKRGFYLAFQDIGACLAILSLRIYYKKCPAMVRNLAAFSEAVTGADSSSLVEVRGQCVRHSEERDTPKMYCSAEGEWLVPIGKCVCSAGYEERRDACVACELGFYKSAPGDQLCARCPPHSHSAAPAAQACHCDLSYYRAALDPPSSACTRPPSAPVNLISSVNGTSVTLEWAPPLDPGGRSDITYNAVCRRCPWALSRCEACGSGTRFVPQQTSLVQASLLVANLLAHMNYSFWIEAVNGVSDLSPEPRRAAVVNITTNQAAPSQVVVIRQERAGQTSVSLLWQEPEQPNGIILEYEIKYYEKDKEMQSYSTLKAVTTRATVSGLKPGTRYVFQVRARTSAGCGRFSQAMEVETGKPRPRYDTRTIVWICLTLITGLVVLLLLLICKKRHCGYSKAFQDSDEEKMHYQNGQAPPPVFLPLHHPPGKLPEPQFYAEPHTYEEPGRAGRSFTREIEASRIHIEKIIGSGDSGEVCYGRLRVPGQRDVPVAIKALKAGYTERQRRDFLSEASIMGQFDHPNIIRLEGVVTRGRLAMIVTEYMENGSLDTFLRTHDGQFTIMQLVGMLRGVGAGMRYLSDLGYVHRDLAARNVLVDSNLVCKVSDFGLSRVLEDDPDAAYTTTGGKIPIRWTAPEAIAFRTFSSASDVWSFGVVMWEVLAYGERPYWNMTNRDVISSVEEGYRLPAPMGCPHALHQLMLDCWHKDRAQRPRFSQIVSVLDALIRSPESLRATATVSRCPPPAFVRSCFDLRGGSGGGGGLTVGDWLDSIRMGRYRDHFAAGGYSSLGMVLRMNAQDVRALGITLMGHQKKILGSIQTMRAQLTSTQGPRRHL
T5 sequence (P08069 31-1367): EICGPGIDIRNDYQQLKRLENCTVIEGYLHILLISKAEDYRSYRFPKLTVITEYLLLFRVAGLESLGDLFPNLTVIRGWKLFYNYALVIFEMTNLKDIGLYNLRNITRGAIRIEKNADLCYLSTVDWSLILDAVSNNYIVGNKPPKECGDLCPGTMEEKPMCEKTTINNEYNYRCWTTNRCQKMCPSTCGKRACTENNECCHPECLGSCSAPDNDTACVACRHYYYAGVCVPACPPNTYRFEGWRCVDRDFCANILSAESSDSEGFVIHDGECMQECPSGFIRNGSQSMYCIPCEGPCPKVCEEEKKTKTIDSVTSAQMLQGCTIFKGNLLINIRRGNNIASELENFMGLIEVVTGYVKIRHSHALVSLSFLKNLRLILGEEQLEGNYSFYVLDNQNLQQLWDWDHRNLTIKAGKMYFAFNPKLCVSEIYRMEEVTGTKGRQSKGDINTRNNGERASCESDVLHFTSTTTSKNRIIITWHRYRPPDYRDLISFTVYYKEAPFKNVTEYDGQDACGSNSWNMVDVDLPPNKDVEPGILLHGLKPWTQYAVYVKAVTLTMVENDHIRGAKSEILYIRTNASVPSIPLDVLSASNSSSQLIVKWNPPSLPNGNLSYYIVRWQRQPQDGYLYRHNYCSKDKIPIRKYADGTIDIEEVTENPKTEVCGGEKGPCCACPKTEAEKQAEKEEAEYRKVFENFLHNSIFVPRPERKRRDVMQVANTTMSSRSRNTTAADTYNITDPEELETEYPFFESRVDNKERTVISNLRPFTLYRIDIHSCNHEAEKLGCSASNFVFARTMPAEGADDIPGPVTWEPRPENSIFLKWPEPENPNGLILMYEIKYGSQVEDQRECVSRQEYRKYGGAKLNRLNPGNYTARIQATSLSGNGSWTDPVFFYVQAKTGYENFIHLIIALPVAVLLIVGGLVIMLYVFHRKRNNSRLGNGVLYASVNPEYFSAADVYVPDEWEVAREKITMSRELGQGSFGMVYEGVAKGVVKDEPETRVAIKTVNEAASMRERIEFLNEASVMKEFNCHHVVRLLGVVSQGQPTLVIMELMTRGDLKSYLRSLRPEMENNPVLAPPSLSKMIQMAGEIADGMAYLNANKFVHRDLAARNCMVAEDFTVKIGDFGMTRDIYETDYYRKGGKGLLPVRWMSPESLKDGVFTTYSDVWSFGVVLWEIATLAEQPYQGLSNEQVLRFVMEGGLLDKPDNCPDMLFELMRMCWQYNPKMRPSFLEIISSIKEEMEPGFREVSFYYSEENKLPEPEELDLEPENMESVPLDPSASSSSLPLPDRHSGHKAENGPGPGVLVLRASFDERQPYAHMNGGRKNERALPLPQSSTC

CNC(=O)c1cc(Oc2ccc(NC(=O)Nc3ccc(Cl)c(C(F)(F)F)c3)c(F)c2)ccn1 [regorafenib]
percentage of apoptotic cells (sum of early and late apoptotic cells) (SW480 cells [1]): 11.17%
percentage of apoptotic cells (sum of early and late apoptotic cells) (RKO cells): 1.18%
percentage of apoptotic cells (sum of early and late apoptotic cells) (HCT116 cells): 13.62%
percentage of apoptotic cells (sum of early and late apoptotic cells) (HT29 cells): 5.16%
bioavailability of regorafenib [2]: increased
cells arrested at the G0-G1 phase (SW480 cells [3]): 39.1%
cells in synthesis (S) phase (SW480 cells [3]): 50%
ALT [4]: 16 U/L
Albumin/Globulin [4]: 1.0
Creatinine [4]: 0.4 mg/dL
Globulin [4]: 2.6 g/dL
Total Billirubin [4]: 0.5 mg/dL
toxicity by serum analysis (liver and kidney functions) [4]: no evident toxicity
Mean Kinase Statistic, FLT1 (FLT1; RKO, 45 min): 0.207
Mean Kinase Statistic, FLT1 (FLT1; SW480, 45 min): -0.166
Mean Kinase Statistic, EphA8 (EphA8; RKO, 45 min): -0.006
Mean Kinase Statistic, EphA8 (EphA8; SW480, 45 min): -0.155
Mean Kinase Statistic, HER4 (HER4; RKO, 45 min): 0.025
Mean Kinase Statistic, HER4 (HER4; SW480, 45 min): -0.223
Mean Kinase Statistic, FGFR3 (FGFR3; RKO, 45 min): 0.194
Mean Kinase Statistic, FGFR3 (FGFR3; SW480, 45 min): -0.292
Mean Kinase Statistic, IGF1R (IGF1R; RKO, 45 min): -0.129
Mean Kinase Statistic, IGF1R (IGF1R; SW480, 45 min): -0.222
Mean Kinase Statistic, FGFR2 (FGFR2; RKO, 45 min): 0.180
Mean Kinase Statistic, FGFR2 (FGFR2; SW480, 45 min): -0.279
Mean Kinase Statistic, FLT3 (FLT3; RKO, 45 min): 0.133
Mean Kinase Statistic, FLT3 (FLT3; SW480, 45 min): -0.243
Mean Kinase Statistic, JAK2 (JAK2; RKO, 45 min): 0.236
Mean Kinase Statistic, JAK2 (JAK2; SW480, 45 min): -0.116
Mean Kinase Statistic, FAK2 (FAK2; RKO, 45 min): -0.049
Mean Kinase Statistic, FAK2 (FAK2; SW480, 45 min): -0.181
Mean Kinase Statistic, HER3 (HER3; RKO, 45 min): 0.047
Mean Kinase Statistic, HER3 (HER3; SW480, 45 min): -0.158
Mean Kinase Statistic, Abl (Abl; RKO, 45 min): -0.036
Mean Kinase Statistic, Abl (Abl; SW480, 45 min): -0.154
